# Assay results as given in patent US9180214B1, “Gonadotropin-releasing hormone receptor-targeting peptides and their use to treat and diagnose cancer” (STC.UNM, priority 2011, dated 2015).
# Positions of bridges follow the written chain, without caps; N, C: chain ends. Non-standard residues stand in square brackets, D forms with d. Residues, ends and D or L forms follow the SMILES beside them. Chains are numbered I, II in the order given. *: point of attachment. DOTA = O=C(O)CN1CCN(CC(=O)O)CCN(CC(=O)*)CCN(CC(=O)O)CC1; pGlu = O=C1CC[C@@H](C(=O)O)N1; Ahx = NCCCCCC(=O)O
# T1: human GnRH receptor membrane preparations (Homo sapiens, UniProt P30968)
# T1 construct: purchased Millipore, Inc (Billerica, Mass.)
# T1 sequence (P30968 1-328): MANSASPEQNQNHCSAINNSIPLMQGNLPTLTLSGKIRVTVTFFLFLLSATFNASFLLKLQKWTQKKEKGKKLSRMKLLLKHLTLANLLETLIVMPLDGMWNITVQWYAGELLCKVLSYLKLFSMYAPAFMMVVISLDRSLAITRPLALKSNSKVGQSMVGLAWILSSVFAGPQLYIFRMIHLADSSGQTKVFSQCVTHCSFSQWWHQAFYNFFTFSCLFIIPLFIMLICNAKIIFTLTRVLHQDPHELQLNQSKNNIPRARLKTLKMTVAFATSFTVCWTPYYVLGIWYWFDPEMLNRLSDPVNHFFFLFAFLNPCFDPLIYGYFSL
# T2: human GnRH receptor (human, UniProt P30968 1-328)
# T2 construct: whole, on cells; also called gonadotropin-releasing hormone (GnRH) receptor; ChemiScreen Human GnRH receptor membrane preparations
# T2 sequence (looked up): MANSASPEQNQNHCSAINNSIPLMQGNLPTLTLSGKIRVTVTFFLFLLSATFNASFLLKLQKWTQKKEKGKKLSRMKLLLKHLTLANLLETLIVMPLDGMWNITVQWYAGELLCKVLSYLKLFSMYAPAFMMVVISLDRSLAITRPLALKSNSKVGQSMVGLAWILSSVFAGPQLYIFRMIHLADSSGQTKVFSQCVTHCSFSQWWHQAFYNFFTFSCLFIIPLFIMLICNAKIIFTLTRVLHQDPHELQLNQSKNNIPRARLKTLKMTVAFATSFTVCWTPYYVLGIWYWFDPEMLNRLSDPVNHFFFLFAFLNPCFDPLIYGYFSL
# Assays:
# [1] = target: T1, human GnRH receptor membrane preparations; experiment: In vitro competitive GnRH receptor binding assay with ^125I-[D-Trp^6]-LH-RH
# Protocol: The GnRH receptor binding affinities (IC50 values) of DOTA-Ahx-(D-Lys^6-GnRH1), DOTA-Ahx-(D-Lys^6-GnRH2) and DOTA-Ahx-(L-Lys^6-GnRH3) were determined by in vitro competitive binding assay according to the published procedure^32 with modifications. Briefly, 5 μL of Millipore ChemiScreen™ human GnRH membrane preparations were incubated at 25° C. for 3 h with approximately 30,000 counts per minute (cpm) of ^125I-[D-Trp^6]-LH-RH in the presence of 10^−11 to 10^−5 M of each peptide in 95 μL of binding medium {50 mM N-(2-hydroxyethyl)-piperazine-N′-(2-ethanesulfonic acid), 5 mM MgCl2, 1 mM CaCl2, pH 7.4, 0.2% bovine serum albumin (BSA)}. After the incubation, 800 μL of ice-cold washing buffer (50 mM N-(2-hydroxyethyl)-piperazine-N′-(2-ethanesulfonic acid), 500 mM NaCl, pH 7.4, 0.1% BSA) was added to each mixture. Each resulting mixture was filtered through a GF/C filter (Whatman, Clifton, N.J.) pre-soaked in 1% polyethylenimine. Each filter was rinsed with 1 mL of ice-cold washing buffer for three times. The activities on the filters were measured in a Wallac 1480 automated gamma counter (PerkinElmer, Waltham, Mass.). The IC50 value of each peptide was calculated using Prism software (GraphPad Software, La Jolla, Calif.).
# [2] = tested on: DU145 human prostate cancer-xenografted nude mice; experiment: Biodistribution in DU145 human prostate cancer-xenografted nude mice; format: in vivo, mouse; details: DU145 xenograft
# Protocol: All the animal studies were conducted in compliance with Institutional Animal Care and Use Committee approval. The pharmacokinetics of ^111In-DOTA-Ahx-(D-Lys^6-GnRH1) was determined in DU145 human prostate cancer-xenografted male athymic nude mice (Harlan, Indianapolis, Ind.). The nude mice were subcutaneously inoculated with 1×10^7 DU145 cells on the right flank of each mouse to generate DU145 xenografted tumors. The tumor weights reached approximately 0.3 g at 18 days post cell inoculation. Each tumor-bearing mouse was injected with 0.037 MBq of 111In-DOTA-Ahx-(D-Lys6-GnRH1) via the tail vein. Groups of 5 mice were sacrificed at 0.5, 2, 4 and 24 h post-injection, and tumors and organs of interest were harvested, weighed and counted. Blood values were taken as 6.5% of the whole-body weight. To determine the tumor imaging property of ^111In-DOTA-Ahx-(D-Lys^6-GnRH1), approximately 33.3 MBq of ^111In-DOTA-Ahx-(D-Lys^6-GnRH1) was injected into a DU145 human prostate cancer-xenografted nude mouse (18 days post the cell inoculation) via the tail vein. The mouse was sacrificed for small animal SPECT/CT (Nano-SPECT/CT®, Bioscan) imaging at 0.5 h post-injection. The CT imaging was immediately followed by the whole-body SPECT imaging. The SPECT scans of 24 projections were acquired. Reconstructed SPECT and CT data were visualized and co-registered using InVivoScope (Bioscan, Washington D.C.).
# [3] = In vitro mouse serum stability by RP-HPLC; format: in vitro ADME; details: 37° C., 2 h
# Protocol: In vitro serum stability of ^111In-DOTA-Ahx-(D-Lys^6-GnRH1) was determined by incubation in mouse serum at 37° C. for 2 h and monitored for degradation by RP-HPLC. Briefly, 100 μL of HPLC-purified ^111In-DOTA-Ahx-(D-Lys^6-GnRH1) solution (˜3.7 MBq) was added into 100 μL of mouse serum (Sigma-Aldrich Corp, St. Louis, Mo.) and incubated at 37° C. for 2 h. After the incubation, 200 μL of a mixture of ethanol and acetonitrile (V:V=1:1) was added to precipitate the serum. The resulting mixture was centrifuged at 10,000 g for 5 min to collect the supernatant. The supernatant was purged with N2 gas for 30 min to remove the ethanol and acetonitrile. The resulting sample was mixed with 500 μL of water and injected into RP-HPLC for analysis using the gradient described above.
# [4] = Urinary metabolites by RP-HPLC in DU145 xenografted nude mouse; format: in vivo; details: 2 h post-injection
# Protocol: One hundred microliters of HPLC purified ^111In-DOTA-Ahx-(D-Lys^6-GnRH1) (2.4 MBq) was injected into a DU145 human prostate cancer-xenografted nude mouse through the tail vein. At 2 h post-injection, the mouse was sacrificed and the urine was collected for metabolites analysis. The urine was centrifuged at 16,000 g for 5 min prior to the HPLC analysis. The radioactive metabolites in the urine were analyzed by injecting aliquots of the urine into HPLC. A 20-minute gradient of 15-25% acetonitrile/20 mM HCl was used for the urine analysis.
# [5] = tested on: MDA-MB-231 human breast cancer-xenografted nude mice; experiment: Biodistribution in MDA-MB-231 human breast cancer-xenografted nude mice; format: in vivo, mouse; details: MDA-MB-231 xenograft
# Protocol: All the animal studies were conducted in compliance with Institutional Animal Care and Use Committee approval. The pharmacokinetics of ^111In-DOTA-Ahx-(D-Lys^6-GnRH1) was determined in MDA-MB-231 human breast cancer-xenografted female athymic nude mice (Harlan, Indianapolis, Ind.). The nude mice were subcutaneously inoculated with 1×10^7 MDA-MB-231 cells on the right flank of each mouse to generate MDA-MB-231 xenografted tumors. The tumor weights reached approximately 0.3 g at 18 days post cell inoculation. Each tumor-bearing mouse was injected with 0.037 MBq of ^111In-DOTA-Ahx-(D-Lys^6-GnRH1) via the tail vein. Groups of 5 mice were sacrificed at 0.5, 2, 4 and 24 h post-injection, and tumors and organs of interest were harvested, weighed and counted. Blood values were taken as 6.5% of the whole-body weight.
# human GnRH receptor [6] = target: T2, human GnRH receptor; experiment: ratio of IC50 values from the competitive binding assay
# human GnRH receptor [7] = target: T2, human GnRH receptor; experiment: competitive binding against 125I-[D-Trp6]-LH-RH on human GnRH receptor membrane preparations, filter assay
# Protocol: The GnRH receptor binding affinities (IC$50$ values) of DOTA-Ahx-(D-Lys^6-GnRH1), DOTA-Ahx-(D-Lys^6-GnRH2) and DOTA-Ahx-(L-Lys^6-GnRH3) were determined by in vitro competitive binding assay according to the published procedure[32] with modifications. […] After the incubation, 800 μL of ice-cold washing buffer (50 mM N-(2-hydroxyethyl)-piperazine-N'-(2-ethanesulfonic acid), 500 mM NaCl, pH 7.4, 0.1% BSA) was added to each mixture. Each resulting mixture was filtered through a GF/C filter (Whatman, Clifton, N.J.) pre-soaked in 1% polyethylenimine. Each filter was rinsed with 1 mL of ice-cold washing buffer for three times. The activities on the filters were measured in a Wallac 1480 automated gamma counter (PerkinElmer, Waltham, Mass.). The IC$50$ value of each peptide was calculated using Prism software (GraphPad Software, La Jolla, Calif.).
molecule,measurement,setting,value
CC(C)C[C@H](NC(=O)[C@@H](CCCCNC(=O)CCCCCNC(=O)CN1CCN(CC(=O)O)CCN(CC(=O)O)CCN(CC(=O)O)CC1)NC(=O)[C@H](Cc1ccc(O)cc1)NC(=O)[C@H](CO)NC(=O)[C@H](Cc1c[nH]c2ccccc12)NC(=O)[C@H](Cc1c[nH]cn1)NC(=O)[C@@H]1CCC(=O)N1)C(=O)N[C@@H](CCCNC(=N)N)C(=O)N1CCC[C@H]1C(=O)NCC(N)=O [DOTA-Ahx-(D-Lys^6-GnRH1)],GnRH receptor binding affinity (in words),[1],low nanomolar
CC(C)C[C@H](NC(=O)[C@@H](CCCCNC(=O)[C@H](Cc1ccc(O)cc1)NC(=O)[C@H](CO)NC(=O)[C@H](Cc1c[nH]c2ccccc12)NC(=O)[C@H](Cc1c[nH]cn1)NC(=O)[C@@H]1CCC(=O)N1)NC(=O)CCCCCNC(=O)CN1CCN(CC(=O)O)CCN(CC(=O)O)CCN(CC(=O)O)CC1)C(=O)N[C@@H](CCCNC(=N)N)C(=O)N1CCC[C@H]1C(=O)NCC(N)=O [DOTA-Ahx-(D-Lys^6-GnRH2)] (I: {DOTA-Ahx}-[dK]LRPG-NH2 / II: [pGlu]HWSY; amide I:1-II:C),decrease of GnRH receptor binding affinity versus DOTA-Ahx-(D-Lys^6-GnRH1),[1],293 fold
CC(C)C[C@H](NC(=O)[C@H](CCCCNC(=O)CCCCCNC(=O)CN1CCN(CC(=O)O)CCN(CC(=O)O)CCN(CC(=O)O)CC1)NC(=O)[C@H](Cc1ccc(O)cc1)NC(=O)[C@H](CO)NC(=O)[C@H](Cc1c[nH]c2ccccc12)NC(=O)[C@H](Cc1c[nH]cn1)NC(=O)[C@@H]1CCC(=O)N1)C(=O)N[C@@H](CCCNC(=N)N)C(=O)N1CCC[C@H]1C(=O)NCC(N)=O [DOTA-Ahx-(L-Lys^6-GnRH3)],decrease of GnRH receptor binding affinity versus DOTA-Ahx-(D-Lys^6-GnRH1),[1],119 fold
"CC(C)C[C@H](NC(=O)[C@@H](CCCCNC(=O)CCCCCNC(=O)CN1CCN(CC(=O)O)CCN(CC(=O)O)CCN(CC(=O)O)CC1)NC(=O)[C@H](Cc1ccc(O)cc1)NC(=O)[C@H](CO)NC(=O)[C@H](Cc1c[nH]c2ccccc12)NC(=O)[C@H](Cc1cnc[nH]1)NC(=O)[C@@H]1CCC(=O)N1)C(=O)N[C@@H](CCCNC(=N)N)C(=O)N1CCC[C@H]1C(=O)NCC(N)=O [^111In-DOTA-Ahx-(D-Lys^6-GnRH1), metal not drawn]","Kidneys, percent injected dose/gram",[2]; 0.5 h post-injection,10.93±1.53 % ID/g
same,"Tumor, percent injected dose/gram",[2]; 0.5 h post-injection,1.27±0.40 % ID/g
same,"Kidneys, percent injected dose/gram",[2]; 2 h post-injection,6.41±0.34 % ID/g
same,"Tumor, percent injected dose/gram",[2]; 2 h post-injection,0.55±0.23 % ID/g
same,"Kidneys, percent injected dose/gram",[2]; 4 h post-injection,7.29±0.90 % ID/g
same,"Tumor, percent injected dose/gram",[2]; 4 h post-injection,0.38±0.16 % ID/g
same,"Kidneys, percent injected dose/gram",[2]; 24 h post-injection,2.72±0.64 % ID/g
same,"Tumor, percent injected dose/gram",[2]; 24 h post-injection,0.31±0.09 % ID/g
same,stability in mouse serum,[3],stable
same,metabolized into two compounds with higher polarity (urine),[4],90.2%
same,remained intact in urine,[4],9.8%
same,"Kidneys, percent injected dose/gram",[5]; 0.5 h post-injection,15.39±4.59 % ID/g
same,"Tumor, percent injected dose/gram",[5]; 0.5 h post-injection,1.76±0.58 % ID/g
same,"Blood, percent injected dose/gram",[5]; 2 h post-injection,0.20±0.03 % ID/g
same,"Kidneys, percent injected dose/gram",[5]; 2 h post-injection,8.88±1.26 % ID/g
same,"Liver, percent injected dose/gram",[5]; 2 h post-injection,0.77±0.06 % ID/g
same,"Tumor, percent injected dose/gram",[5]; 2 h post-injection,0.29±0.10 % ID/g
same,"Kidneys, percent injected dose/gram",[5]; 4 h post-injection,9.28±1.18 % ID/g
same,"Liver, percent injected dose/gram",[5]; 4 h post-injection,0.97±0.13 % ID/g
same,"Tumor, percent injected dose/gram",[5]; 4 h post-injection,0.15±0.05 % ID/g
same,"Kidneys, percent injected dose/gram",[5]; 24 h post-injection,4.43±1.67 % ID/g
same,"Liver, percent injected dose/gram",[5]; 24 h post-injection,0.59±0.16 % ID/g
same,"Tumor, percent injected dose/gram",[5]; 24 h post-injection,0.18±0.07 % ID/g
DOTA-Ahx-(D-Lys^6-GnRH2) (peptide),fold decrease of GnRH receptor binding affinity against DOTA-Ahx-(D-Lys^6-GnRH1),human GnRH receptor [6],293 fold
XHWSYKLRPG (pGlu at 1; D-Lys at 6 carrying DOTA-Ahx (aminohexanoic acid linker) on its epsilon amino group; C-terminal amide (Gly10-NH2)) [DOTA-Ahx-(D-Lys^6-GnRH1)],IC50,human GnRH receptor [7],36.1 nM
XHWSYKLRPG (pGlu at 1; L-Lys at 6 carrying DOTA-Ahx on its epsilon amino group; C-terminal amide) [DOTA-Ahx-(L-Lys^6-GnRH3)],fold decrease of GnRH receptor binding affinity against DOTA-Ahx-(D-Lys^6-GnRH1),human GnRH receptor [6],119 fold
